Earlier results as cited in patent US11766458B2, “Method and a dietary composition on regulation, treatment, and prevention of obesity” (priority 2021, dated 2023).

Legend:
[1] = tested on: DIO C57BL/6 mice
[2] = Nutrition & Diabetes volume 11, Article number: 3, 2021

Compound	Energy intake (food diary) (after L-arginine treatment)	Release of plasma PYY (healthy people, oral 17.1 mmol, after unlimited meals, p<0.001)	Release of plasma GLP-1 (healthy people, oral 17.1 mmol, after unlimited meals, p<0.05)	GLP-1 secretion ([1]; oral 1 g/kg 15 minutes before OGTT)	Glucose resistance ([1]; oral 1 g/kg 15 minutes before OGTT (2 g glucose/kg bw))	Gastric emptying [2]
N=C(N)NCCC[C@H](N)C(=O)O [L-arginine]	less energy intake	stimulated	stimulated	induces GLP-1 secretion	improves glucose resistance	
N[C@@H](Cc1c[nH]c2ccccc12)C(=O)O [tryptophan]						delays the gastric emptying
